Data reported in patent US20240417387A1, “SULFONYLPIPERAZINYL COMPOUNDS FOR TREATMENT OF BACTERIAL INFECTIONS” (Hoffmann-La Roche Inc., priority 2021, published 2024).
Converted amounts (≈) assume the structure as drawn.

Assays:
[1] = target: Escherichia coli UDP-2,3-diacylglucosamine hydrolase (LpxH) (Escherichia coli (strain K12), UniProt P43341); assay: Enzymatic IC50 assay of Escherichia coli LpxH (UMP/CMP-Glo luminescence); format: biochemical; details: Enzymatic IC50 against Escherichia coli LpxH; read-out: IC50 (converted)
Sequence of Escherichia coli UDP-2,3-diacylglucosamine hydrolase (LpxH) (P43341 whole entry): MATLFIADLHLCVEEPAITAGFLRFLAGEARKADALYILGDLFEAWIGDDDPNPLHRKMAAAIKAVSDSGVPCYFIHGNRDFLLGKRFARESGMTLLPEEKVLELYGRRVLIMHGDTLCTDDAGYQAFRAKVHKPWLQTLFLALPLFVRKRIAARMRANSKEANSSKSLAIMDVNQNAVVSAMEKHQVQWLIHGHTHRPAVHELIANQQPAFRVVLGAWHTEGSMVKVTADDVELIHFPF
Outline: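 LpxH (2 nM) preincubated 10 min at room temperature with compound (100 μM to 1.7 nM) in Tris-HCl pH7.5 buffer with 2.5 mM MnCl2, then reacted with 5 μM UDP-DAG for 20 min. Reaction heat-stopped at 95° C.; released UMP converted to ATP and read by luciferase luminescence (UMP/CMP-Glo).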

[2] = tested on: Escherichia coli BW 25113; assay: Minimal Inhibitory Concentration (MIC) broth dilution assay, E. coli BW 25113; format: cell-based; details: Escherichia coli, BW25113, 20 hours at 35° C., CAMHB, read-out: MIC E. coli K-12 BW 25113
Outline: (§1)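 Broth microdilution with twofold compound series in cation-adjusted Mueller Hinton broth, inoculum 5×10^5 CFU/mL, applied to each strain. Plates incubated 20 h at 35 °C in ambient air. MIC […] recorded as the lowest concentration with no visible growth, read by eye.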

[3] = tested on: Escherichia coli ATCC 25922; assay: Minimal Inhibitory Concentration (MIC) broth dilution assay, E. coli ATCC 25922; format: cell-based; details: Escherichia coli, ATCC25922, 20 h, read-out: MIC E. coli ATCC 25922
Outline: as §1

[4] = tested on: Klebsiella pneumonia ATCC 43816; assay: Minimal Inhibitory Concentration (MIC) broth dilution assay, K. pneumonia ATCC 43816; format: cell-based; details: Klebsiella pneumoniae, ATCC43816, 20 hours at 35° C., CAMHB, read-out: MIC K. p ATCC 43816
Outline: as §1

[5] = Human microsome stability assay; format: in vitro ADME; details: human liver microsomes 0.5 mg/mL, 37° C., pH 7.4, NADPH regenerating system
Outline: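 Compound […] with 0.5 mg/mL human liver microsomal protein in 100 mM potassium phosphate pH 7.4, 10 min preincubation at 37 °C, started with NADPH regenerating system. Sampled 0–30 min, remaining compound by LC-MS/MS; clearance binned low <7, medium 7–16.2, high >16.2 mL/min/kg.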

[6] = tested on: efflux-deficient Escherichia coli strains; details: reported in Bioorganic Chemistry (2020), 102, 104055; cited from earlier work
[7] = tested on: LPS synthesis pathway; details: reported in Bioorganic Chemistry (2020), 102, 104055; cited from earlier work

SMILES | IC50 [1] [nM] | MIC [2] [µg/mL] | MIC [3] [µg/mL] | MIC [4] [µg/mL] | Clearance of Human microsome [5] [mL/min/kg] | antibiotic activity against efflux-deficient Escherichia coli strains [6] | LPS synthesis pathway inhibition activity [7]
N[C@@H]1CC(=O)N(c2ccc(S(=O)(=O)N3CCN(c4cc(C(F)(F)[C@H]5CC[C@H](C(=O)NNC(=O)C6CCNCC6)CC5)cc(Cl)n4)CC3)cc2)C1 [Example 051, Trans-N′-[4-[[2-chloro-6-[4-[4-[(4R)-4-amino-2-oxo-pyrrolidin-1-yl]phenyl]sulfonylpiperazin-1-yl]-4-pyridyl]-difluoro-methyl]cyclohexanecarbonyl]piperidine-4-carbohydrazide] | 12.2 | 2.3 (≈ 3.12 µM) | 4.6 (≈ 6.24 µM) | 4.6 (≈ 6.24 µM) | 8.70 | – | –
NC(CO)CNC(=O)[C@H]1CC[C@H](C(F)(F)c2cc(Cl)nc(N3CCN(S(=O)(=O)c4ccc(N5C[C@H](N)CC5=O)cc4)CC3)c2)CC1 (stereo partly drawn) [Example 052, Trans-N-(2-amino-3-hydroxy-propyl)-4-[[2-chloro-6-[4-[4-[(4R)-4-amino-2-oxo-pyrrolidin-1-yl]phenyl]sulfonylpiperazin-1-yl]-4-pyridyl]-difluoro-methyl]cyclohexanecarboxamide] | < 2.92 | 0.56 (≈ 0.818 µM) | 0.56 (≈ 0.818 µM) | 0.56 (≈ 0.818 µM) | 7.41 | – | –
NCCCNC(=O)C1CC2C(C1)C2C(F)(F)c1cc(Cl)nc(N2CCN(S(=O)(=O)c3ccc(N4C[C@H](N)CC4=O)cc3)CC2)c1 (stereo partly drawn) [Example 055, N-(3-aminopropyl)-6-[[2-chloro-6-[4-[4-[(4R)-4-amino-2-oxo-pyrrolidin-1-yl]phenyl]sulfonylpiperazin-1-yl]-4-pyridyl]-difluoro-methyl]bicyclo[3.1.0]hexane-3-carboxamide] | 9.01 | 0.55 (≈ 0.826 µM) | 0.85 (≈ 1.28 µM) | 0.55 (≈ 0.826 µM) | 8.58 | – | –
NCCCNC(=O)[C@H]1CC[C@H](C(F)(F)c2cc(Cl)nc(N3CCN(S(=O)(=O)c4ccc(N5C[C@H](N)CC5=O)cc4)CC3)c2)CC1 [Example 056, Trans-N-(3-aminopropyl)-4-[[2-chloro-6-[4-[4-[(4R)-4-amino-2-oxo-pyrrolidin-1-yl]phenyl]sulfonylpiperazin-1-yl]-4-pyridyl]-difluoro-methyl]cyclohexanecarboxamide] | 5.99 | 1.1 (≈ 1.65 µM) | 1.2 (≈ 1.8 µM) | 1.1 (≈ 1.65 µM) | 11.37 | – | –
NCC1CN(C(=O)[C@H]2CC[C@H](C(F)(F)c3cc(Cl)nc(N4CCN(S(=O)(=O)c5ccc(N6C[C@H](N)CC6=O)cc5)CC4)c3)CC2)C1 [Example 057] | 2.94 | 1.1 (≈ 1.62 µM) | 1.1 (≈ 1.62 µM) | 1.1 (≈ 1.62 µM) | 6.15 | – | –
NCCCNC(=O)[C@H]1CC[C@H](C(F)(F)c2cc(Cl)nc(N3CCN(S(=O)(=O)c4ccc(N5C[C@@H](CO)OC5=O)cc4)CC3)c2)CC1 [Example 058, Trans-N-(3-aminopropyl)-4-[[2-chloro-6-[4-[4-[(5S)-5-(hydroxymethyl)-2-oxo-oxazolidin-3-yl]phenyl]sulfonylpiperazin-1-y1]-4-pyridyl]-difluoro-methyl]cyclohexanecarboxamide] | < 2.92 | 0.29 (≈ 0.423 µM) | 1.1 (≈ 1.61 µM) | 1.1 (≈ 1.61 µM) | 8.04 | – | –
NCCCNC(=O)[C@H]1CC[C@H](C(F)(F)c2cc(Cl)nc(N3CCN(S(=O)(=O)c4ccc(N5C[C@H](CO)OC5=O)cc4)CC3)c2)CC1 [Example 059, Trans-N-(3-aminopropyl)-4-[[2-chloro-6-[4-[4-[(5R)-5-(hydroxymethyl)-2-oxo-oxazolidin-3-yl]phenyl]sulfonylpiperazin-1-yl]-4-pyridyl]-difluoro-methyl]cyclohexanecarboxamide] | < 2.92 | 1.2 (≈ 1.75 µM) | 1.2 (≈ 1.75 µM) | 1.2 (≈ 1.75 µM) | 6.15 | – | –
NCCCNC(=O)[C@H]1CC[C@H](C(F)(F)c2cc(Cl)nc(N3CCN(S(=O)(=O)c4ccc(N5CC(N6CCNCC6)CC5=O)cc4)CC3)c2)CC1 (stereo partly drawn) [Example 060, Trans-N-(3-aminopropyl)-4-[[2-chloro-6-[4-[4-(2-oxo-4-piperazin-1-yl-pyrrolidin-1-yl)phenyl]sulfonylpiperazin-1-y1]-4-pyridyl]-difluoro-methyl]cyclohexanecarboxamide] | < 2.71 | 2.4 (≈ 3.26 µM) | 1.8 (≈ 2.44 µM) | 1.2 (≈ 1.63 µM) | 8.12 | – | –
NCCCNC(=O)[C@H]1CC[C@H](C(F)(F)c2cc(Cl)nc(N3CCN(S(=O)(=O)c4ccc(N5C[C@H](N)CC5=O)nc4)CC3)c2)CC1 [Example 061, Trans-N-(3-aminopropyl)-4-[[2-chloro-6-[4-[[6-[(4R)-4-amino-2-oxo-pyrrolidin-1-yl]-3-pyridyl]sulfonyl]piperazin-1-yl]-4-pyridyl]-difluoro-methyl]cyclohexanecarboxamide] | 2.99 | 1.1 (≈ 1.64 µM) | 1.1 (≈ 1.64 µM) | 1.1 (≈ 1.64 µM) | 6.15 | – | –
NCCNCCNC(=O)[C@H]1CC[C@H](C(F)(F)c2cc(Cl)nc(N3CCN(S(=O)(=O)c4ccc(N5C[C@H](N)CC5=O)cc4)CC3)c2)CC1 [Example 072, Trans-N-[2-(2-aminoethylamino)ethyl]-4-[[2-chloro-6-[4-[4-[(4R)-4-amino-2-oxo-pyrrolidin-1-yl]phenyl]sulfonylpiperazin-1-yl]-4-pyridyl]-difluoro-methyl]cyclohexanecarboxamide] | 4.3 | 0.57 (≈ 0.817 µM) | 1.1 (≈ 1.58 µM) | 1.1 (≈ 1.58 µM) | 6.15 | – | –
C[N+](C)(CCN)CCNC(=O)[C@H]1CC[C@H](C(F)(F)c2cc(Cl)nc(N3CCN(S(=O)(=O)c4ccc(N5C[C@H](N)CC5=O)cc4)CC3)c2)CC1 [Example 073, Trans-2-aminoethyl-[2-[[4-[[2-chloro-6-[4-[4-[(4R)-4-amino-2-oxo-pyrrolidin-1-yl]phenyl]sulfonylpiperazin-1-yl]-4-pyridyl]-difluoro-methyl]cyclohexanecarbonyl]amino]ethyl]-dimethyl-ammonium] | < 2.75 | 1.2 | 1.2 | 2.4 | 6.15 | – | –
NCC[N+]1(CCNC(=O)[C@H]2CC[C@H](C(F)(F)c3cc(Cl)nc(N4CCN(S(=O)(=O)c5ccc(N6C[C@H](N)CC6=O)cc5)CC4)c3)CC2)CCCC1 [Example 074, Trans-N-[2-[1-(2-aminoethyl)pyrrolidin-1-ium-1-yl]ethyl]-4-[[2-[4-[4-[(4R)-4-amino-2-oxo-pyrrolidin-1-yl]phenyl]sulfonylpiperazin-1-yl]-6-chloro-4-pyridyl]-difluoro-methyl]cyclohexanecarboxamide] | 39.9 | 1.9 | 1.9 | 1.9 | 6.15 | – | –
NCC(=O)NCCNC(=O)[C@H]1CC[C@H](C(F)(F)c2cc(Cl)nc(N3CCN(S(=O)(=O)c4ccc(N5C[C@H](N)CC5=O)cc4)CC3)c2)CC1 [Example 075, Trans-N-[2-[(2-aminoacetyl)amino]ethyl]-4-[[2-chloro-6-[4-[4-[(4R)-4-amino-2-oxo-pyrrolidin-1-yl]phenyl]sulfonylpiperazin-1-yl]-4-pyridyl]-difluoro-methyl]cyclohexanecarboxamide] | 8.44 | 2.3 (≈ 3.23 µM) | 2.3 (≈ 3.23 µM) | 1.2 (≈ 1.69 µM) | 10.47 | – | –
COC(CN)CNC(=O)[C@H]1CC[C@H](C(F)(F)c2cc(Cl)nc(N3CCN(S(=O)(=O)c4ccc(N5C[C@H](N)CC5=O)cc4)CC3)c2)CC1 (stereo partly drawn) [Example 076, Trans-N-(3-amino-2-methoxy-propyl)-4-[[2-chloro-6-[4-[4-[(4R)-4-amino-2-oxo-pyrrolidin-1-yl]phenyl]sulfonylpiperazin-1-yl]-4-pyridyl]-difluoro-methyl]cyclohexanecarboxamide] | < 2.86 | 1.1 (≈ 1.58 µM) | 1.1 (≈ 1.58 µM) | 1.1 (≈ 1.58 µM) | 9.06 | – | –
CC(=O)N1CCc2cc(S(=O)(=O)N3CCN(c4cc(Cl)cc(C(F)(F)F)c4)CC3)ccc21 [JH-LPH-33, reference compound] | 293 | > 24 | > 24 | > 24 | 20.94 | antibiotic activity | LPS synthesis pathway inhibition activity
